# Data: paper PMC11521309, “A novel 4-aminoquinoline chemotype with multistage antimalarial activity and lack of cross-resistance with PfCRT and PfMDR1 mutants” (PLOS Pathogens, 2024)
# Values joined by “and” are separate entries in the source; they are usually repeats but may differ in a detail not shown here. Identical values can stand only once. Like-named read-outs stand apart in the source and are kept apart here.
# What was measured:
# [1] = system: P. falciparum 3D7 ABS parasites; assay: ABS parasite survival assay, 72 h, flow cytometry; assay type: cell-based; conditions: Plasmodium falciparum
# Protocol: (§1) P. falciparum ABS parasites were cultured at 3% hematocrit in human O^+ RBCs in RPMI-1640 media supplemented with 25 mM HEPES, 50 mg/L hypoxanthine, 2 mM L-glutamine, 0.21% sodium bicarbonate, 0.5% (w/v) AlbuMAXII (Invitrogen) and 10 μg/mL gentamycin. Culture flasks were kept in modular incubator chambers (Billups-Rothenberg) in a 5% O2, 5% CO2, and 90% N2 atmosphere at 37°C. Synchronized ring-stage parasites were obtained by two consecutive rounds of treatment with 5% D-sorbitol in 48-hour intervals. […] This was done by exposing cultures at 1% hematocrit and 0.3% parasitemia in 96-well plates in the presence of drugs in a two-fold 10 or 12-point serial dilution in duplicate along with drug-free controls. After a 72-hour incubation, parasite survival was assessed by flow cytometry on an iQue flow cytometer (Sartorius) using SYBR Green and MitoTracker Deep Red FM (Life Technologies) as nuclear stain and vital dye, respectively. Parasite survival was determined as a percentage relative to drug-free control. IC50 values were interpolated from log concentration versus response curves in Prism 9 (GraphPad Prism Software Inc.).
# [2] = system: P. falciparum Dd2 ABS parasites; assay: ABS parasite survival assay, 72 h, flow cytometry; assay type: cell-based; conditions: Plasmodium falciparum
# Protocol: as §1
# [3] = system: P. berghei ookinete formation; assay: In vitro inhibition of ookinete formation (nLuc conversion assay), 24 h; assay type: cell-based, Plasmodium berghei; conditions: for % Inhibition of ookinete conversion: single assays
# Protocol: To measure the inhibition of gamete conversion into ookinetes, a mutant luciferase-expressing P. berghei line (nLuc) was intraperitoneally injected into BALB/c mice. After 3–4 days, gametocyte-carrying blood samples were collected. In vitro compound testing was carried out by exposing 4 μL of infected blood mixed with 80 μL of culture medium (RPMI-1640 supplemented with 25 mM HEPES, 50 mg/L hypoxanthine, and 1% penicillin/streptomycin/neomycin at pH 8.3) to a range of drug concentrations for 24 hours at 21°C. Following the incubation, 20 μL of nLuc substrate (Nano-Glo Luciferase Assay System, Promega) was added to each well, and luminescence was measured in a luminometer. Increased light emission correlated with nLuc production and subsequent luciferase activity due to in vitro fertilization and ookinete conversion, as luciferase expression in this parasite line is regulated by the CTRP promoter that is ookinete-specific. Conversion inhibition was calculated as the percentage of luciferase activity of drug-exposed wells relative to untreated ones, from which IC50 values were interpolated.
# [4] = system: Hz formation in ABS P. falciparum 3D7 parasites; assay: Cellular heme fractionation assay; assay type: cell-based, Plasmodium falciparum
# Protocol: A heme fractionation assay was used to measure the inhibition of Hz formation in cultured ABS P. falciparum 3D7 parasites as previously described. […] Late trophozoites were harvested after 32 hours of incubation by lysing RBCs with 0.05% saponin followed by multiple washes with 1 × PBS (pH 7.5) to remove any residual traces of hemoglobin. The parasite pellet was resuspended in PBS and the total number of trophozoites isolated was quantified using flow cytometry. Contents of the trophozoite pellet were released by hypotonic lysis and sonication. After centrifugation, treatments with HEPES buffer (pH 7.4), sodium dodecyl sulfate, pyridine, and NaOH, allowed us to separate the fractions corresponding to the different heme species of interest. A microplate reader was employed to measure the UV-visible spectrum of each heme fraction as a Fe(III)heme-pyridine complex. Fractions of undigested hemoglobin, “free” heme, and Hz were quantified using a heme standard curve based on the mass of each heme-Fe species per mature trophozoite (fg/cell), obtained by dividing the total amount of each heme species by the corresponding number of parasites in that fraction as determined by flow cytometry. Statistical comparisons and analyses for trends employed Students’ t-tests (GraphPad Prism version 9).
# [5] = 0.5x IC50, 32 h, single replicates
# [6] = 0.5–3.0 × IC50 vs untreated control
# [7] = 1x IC50, 32 h, single replicates
# [8] = 2x IC50, 32 h, single replicates
# [9] = 2.5x IC50, 32 h, single replicates
# [10] = 3x IC50, 32 h, single replicates
structure (smiles),measurement,setting,value
COc1cc2nccc(Nc3cccc(Oc4ccccc4)c3)c2cc1OC [LDT-623],IC50,"[1]; 3D7, ABS parasites, N = 3, read-out: IC50 3D7",130 ± 10 nM
same,IC50,"[1]; 3D7, CQ-sensitive strain, read-out: IC50 3D7",127 nM
same,IC50,"[1]; 3D7, read-out: IC50 3D7",126.6 ± 0.1 nM
same,IC50,"[2]; DD2, ABS parasites, N = 3, read-out: IC50 Dd2",300 ± 30 nM
same,IC50,"[2]; DD2, CQ-resistant strain, read-out: IC50 Dd2",365 nM
same,IC50,"[2]; DD2, read-out: IC50 Dd2",365 ± 17.5 nM
same,% Inhibition of ookinete conversion,[3]; Log conc. (uM) 0.39794,72.78% and 76.99% and 75.53% and 88.24% and 87.02% and 67.23% and 81.09%
same,% Inhibition of ookinete conversion,[3]; Log conc. (uM) 0.69897,88.00% and 95.67% and 86.70% and 98.41% and 98.02% and 73.84% and 94.25%
same,% Inhibition of ookinete conversion,[3]; Log conc. (uM) 1,99.93% and 99.92% and 99.83% and 99.70% and 99.35% and 98.41% and 99.32%
same,% Inhibition of ookinete conversion,[3]; Log conc. (uM) -1.70927,0.00%
same,IC50,"[3]; Plasmodium berghei, read-out: IC50 inhibition of ookinete formation, mean, N = 7",1500 nM
same,%Hb,"[4]; 0.5x IC50, 32 h, Mean",6.49%
same,%Heme,"[4]; 0.5x IC50, 32 h, Mean",9.94%
same,%Hemozoin,"[4]; 0.5x IC50, 32 h, Mean",83.57%
same,Hb Fe (fg/troph),"[4]; 0.5x IC50, 32 h, Mean",3.40 fg/troph
same,Heme Fe (fg/troph),"[4]; 0.5x IC50, 32 h, Mean",5.28 fg/troph
same,Hemozoin Fe (fg/troph),"[4]; 0.5x IC50, 32 h, Mean",44.40 fg/troph
same,Total Fe (fg/troph),"[4]; 0.5x IC50, 32 h, Mean",54.33 fg/troph
same,%Hb,[4]; [5],5.0225% and 6.9078% and 7.3751% and 6.6526%
same,%Heme,[4]; [5],10.3876% and 10.3966% and 9.0005% and 9.9788%
same,%Hemozoin,[4]; [5],84.5899% and 82.6957% and 83.6245% and 83.3686%
same,Hb Fe (fg/troph),[4]; [5],2.7844 fg/troph and 3.6098 fg/troph and 3.8007 fg/troph and 3.8647 fg/troph
same,Heme Fe (fg/troph),[4]; [5],5.7588 fg/troph and 5.4329 fg/troph and 4.6383 fg/troph and 5.7970 fg/troph
same,Hemozoin Fe (fg/troph),[4]; [5],46.8963 fg/troph and 43.2142 fg/troph and 43.0950 fg/troph and 48.4315 fg/troph
same,Total Fe (fg/troph),[4]; [5],55.44 fg/troph and 52.26 fg/troph and 51.53 fg/troph and 58.09 fg/troph
same,effect on Hz levels,[4]; [6],significant concentration-dependent decreases in the levels of Hz
same,effect on undigested Hb,[4]; [6],augmented percentage of undigested Hb was observed starting at 0.5 × IC50
same,effect on “free” heme,[4]; [6],statistically significant increase in “free” heme in a concentration-dependent manner
same,%Hb,"[4]; 1x IC50, 32 h, Mean",7.02%
same,%Heme,"[4]; 1x IC50, 32 h, Mean",10.55%
same,%Hemozoin,"[4]; 1x IC50, 32 h, Mean",82.43%
same,Hb Fe (fg/troph),"[4]; 1x IC50, 32 h, Mean",3.49 fg/troph
same,Heme Fe (fg/troph),"[4]; 1x IC50, 32 h, Mean",5.57 fg/troph
same,Hemozoin Fe (fg/troph),"[4]; 1x IC50, 32 h, Mean",44.22 fg/troph
same,Total Fe (fg/troph),"[4]; 1x IC50, 32 h, Mean",54.30 fg/troph
same,%Hb,[4]; [7],4.1032% and 6.0183% and 9.3168% and 8.6327%
same,%Heme,[4]; [7],11.3186% and 11.3158% and 8.7646% and 10.7959%
same,%Hemozoin,[4]; [7],84.5783% and 82.6659% and 81.9186% and 80.5714%
same,Hb Fe (fg/troph),[4]; [7],2.0348 fg/troph and 3.3626 fg/troph and 5.0638 fg/troph and 4.9539 fg/troph
same,Heme Fe (fg/troph),[4]; [7],5.6130 fg/troph and 6.3225 fg/troph and 4.7637 fg/troph and 6.1953 fg/troph
same,Hemozoin Fe (fg/troph),[4]; [7],41.9435 fg/troph and 46.1884 fg/troph and 44.5239 fg/troph and 46.2360 fg/troph
same,Total Fe (fg/troph),[4]; [7],49.59 fg/troph and 55.87 fg/troph and 54.35 fg/troph and 57.39 fg/troph
same,%Hb,"[4]; 2x IC50, 32 h, Mean",5.86%
same,%Heme,"[4]; 2x IC50, 32 h, Mean",12.64%
same,%Hemozoin,"[4]; 2x IC50, 32 h, Mean",81.50%
same,Hb Fe (fg/troph),"[4]; 2x IC50, 32 h, Mean",3.50 fg/troph
same,Heme Fe (fg/troph),"[4]; 2x IC50, 32 h, Mean",6.66 fg/troph
same,Hemozoin Fe (fg/troph),"[4]; 2x IC50, 32 h, Mean",43.79 fg/troph
same,Total Fe (fg/troph),"[4]; 2x IC50, 32 h, Mean",54.83 fg/troph
same,%Hb,[4]; [8],4.9454% and 8.0340% and 6.4023% and 4.0696%
same,%Heme,[4]; [8],13.6029% and 11.9660% and 11.4824% and 13.5021%
same,%Hemozoin,[4]; [8],81.4516% and 80.0000% and 82.1153% and 82.4284%
same,Hb Fe (fg/troph),[4]; [8],2.6441 fg/troph and 4.5716 fg/troph and 3.2970 fg/troph and 2.3379 fg/troph
same,Heme Fe (fg/troph),[4]; [8],7.2727 fg/troph and 6.8090 fg/troph and 5.9132 fg/troph and 7.7566 fg/troph
same,Hemozoin Fe (fg/troph),[4]; [8],43.5476 fg/troph and 45.5226 fg/troph and 42.2872 fg/troph and 47.3530 fg/troph
same,Total Fe (fg/troph),[4]; [8],53.46 fg/troph and 56.90 fg/troph and 51.50 fg/troph and 57.45 fg/troph
same,%Hb,"[4]; 2.5x IC50, 32 h, Mean",6.89%
same,%Heme,"[4]; 2.5x IC50, 32 h, Mean",13.61%
same,%Hemozoin,"[4]; 2.5x IC50, 32 h, Mean",79.50%
same,Hb Fe (fg/troph),"[4]; 2.5x IC50, 32 h, Mean",3.48 fg/troph
same,Heme Fe (fg/troph),"[4]; 2.5x IC50, 32 h, Mean",7.40 fg/troph
same,Hemozoin Fe (fg/troph),"[4]; 2.5x IC50, 32 h, Mean",43.37 fg/troph
same,Total Fe (fg/troph),"[4]; 2.5x IC50, 32 h, Mean",54.23 fg/troph
same,%Hb,[4]; [9],6.2660% and 6.4635% and 6.5388% and 8.2899%
same,%Heme,[4]; [9],15.0745% and 13.6837% and 12.1024% and 13.5701%
same,%Hemozoin,[4]; [9],78.6596% and 79.8529% and 81.3587% and 78.1400%
same,Hb Fe (fg/troph),[4]; [9],3.4040 fg/troph and 3.6534 fg/troph and 3.3950 fg/troph and 4.4889 fg/troph
same,Heme Fe (fg/troph),[4]; [9],8.1894 fg/troph and 7.7345 fg/troph and 6.2837 fg/troph and 7.3481 fg/troph
same,Hemozoin Fe (fg/troph),[4]; [9],42.7326 fg/troph and 45.1360 fg/troph and 42.2421 fg/troph and 42.3122 fg/troph
same,Total Fe (fg/troph),[4]; [9],54.33 fg/troph and 56.52 fg/troph and 51.92 fg/troph and 54.15 fg/troph
same,%Hb,"[4]; 3x IC50, 32 h, Mean",8.06%
same,%Heme,"[4]; 3x IC50, 32 h, Mean",18.59%
same,%Hemozoin,"[4]; 3x IC50, 32 h, Mean",73.35%
same,Hb Fe (fg/troph),"[4]; 3x IC50, 32 h, Mean",4.13 fg/troph
same,Heme Fe (fg/troph),"[4]; 3x IC50, 32 h, Mean",9.47 fg/troph
same,Hemozoin Fe (fg/troph),"[4]; 3x IC50, 32 h, Mean",38.59 fg/troph
same,Total Fe (fg/troph),"[4]; 3x IC50, 32 h, Mean",52.57 fg/troph
same,%Hb,[4]; [10],7.5148% and 8.7626% and 7.4537% and 8.4952%
same,%Heme,[4]; [10],20.9692% and 17.6208% and 15.9272% and 19.8532%
same,%Hemozoin,[4]; [10],71.5161% and 73.6166% and 76.6190% and 71.6515%
same,Hb Fe (fg/troph),[4]; [10],3.8296 fg/troph and 4.6352 fg/troph and 3.9291 fg/troph and 4.5643 fg/troph
same,Heme Fe (fg/troph),[4]; [10],10.6861 fg/troph and 9.3209 fg/troph and 8.3957 fg/troph and 10.6667 fg/troph
same,Hemozoin Fe (fg/troph),[4]; [10],36.4452 fg/troph and 38.9409 fg/troph and 40.3879 fg/troph and 38.4969 fg/troph
same,Total Fe (fg/troph),[4]; [10],50.96 fg/troph and 52.90 fg/troph and 52.71 fg/troph and 53.73 fg/troph
